Assay [1] has as its target cholinergic muscarine receptors. In kind it is binding, rat.
Assay [2] concerns the target (mainly u.-type) opiate receptors (Rattus norvegicus, UniProt P33535). In words: Affinity to opiate receptors: [3H]-naloxone displacement in rat brain homogenates. In kind it is binding.
Setting [3] is: [^3H] QNB displacement expressed in Ki; homogenates of rat brains; read-out: Affinity to muscarine receptors 2).

Where two headings read alike, the source gives them in different places.

(mainly u.-type) opiate receptors, sequence (P33535 whole entry): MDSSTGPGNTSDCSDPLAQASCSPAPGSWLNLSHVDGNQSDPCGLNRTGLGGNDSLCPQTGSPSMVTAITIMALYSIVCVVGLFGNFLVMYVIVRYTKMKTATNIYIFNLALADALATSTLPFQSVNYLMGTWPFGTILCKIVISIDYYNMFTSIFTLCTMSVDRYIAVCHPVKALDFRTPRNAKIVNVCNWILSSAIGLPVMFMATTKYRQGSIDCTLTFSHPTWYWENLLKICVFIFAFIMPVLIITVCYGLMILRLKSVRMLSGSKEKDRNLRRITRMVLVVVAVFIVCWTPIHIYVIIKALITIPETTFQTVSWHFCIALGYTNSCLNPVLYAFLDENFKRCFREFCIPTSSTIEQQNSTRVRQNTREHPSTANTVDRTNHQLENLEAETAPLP

For the compound `CCN(CCCC(=O)C1CCCCC1)C(C)Cc1ccc(Cl)cc1` (racemic) [f, reference compound], the Ki in assay [1] (setting [3]) is 8.3 nM. As for `CCN(CCCC(=O)C1CCCCC1)[C@H](C)Cc1ccc(O)cc1` [c], the Ki in assay [1] (setting [3]) worked out at 450 nM. Besides, the opiate-antagonistic activity result in assay [2] was “found substantially entirely in the R isomer”. As to `CN1[C@@H]2CC[C@H]1C[C@@H](OC(=O)C(CO)c1ccccc1)C2` (stereo partly shown) [atropine, reference compound], the Ki in assay [1] (read-out: Affinity to muscarine receptors 2)) stood at 1.4 nM.

Turning to `CCCC(=O)CCCN(CC)C(C)Cc1ccc(OC)cc1` (racemic) [e, reference compound], in assay [1] (setting [3]), the Ki is 28 nM. In the case of `CCN(CCCC(=O)C1CCCCC1)C(C)Cc1ccc(OC)cc1` (racemic) [g, reference compound], in assay [1] (setting [3]), the Ki was determined as 2.7 nM. Same read-out and setting: then `CCCN(CCCC(=O)C1CCCCC1)C(C)Cc1ccc(O)cc1` (racemic) [a], with 5.2 nM.

Consider `CCN(CCCC(=O)C1CCCCC1)C(C)Cc1ccc(O)cc1` (racemic) [b], for which the Ki in assay [1] (setting [3]) worked out at 9.6 nM. Regarding `CCN(CCCC(=O)C1CCCCC1)[C@@H](C)Cc1ccc(O)cc1` [d], the Ki in assay [1] (setting [3]) stood at 4.1 nM. In assay [1] (pure R and S isomers of racemic compound b compared), the muscarinolytic activity entry is “found substantially exclusively in the S isomer”.

(Values after EP0289070A1, “Tertiary arylethyl amine derivatives having opiate-antagonistic activity” (DUPHAR INTERNATIONAL RESEARCH B.V, priority 1987, dated 1988).)
